Measurements: US7713960B2, “Inhibition of the Raf/Mek/P-Erk pathway for treating cancer” (University of South Florida, priority 2005, dated 2010)
“And” between values parts separate entries of the source, which are not always exact repeats. Equal values may be shown once. Where a name gives a salt, the structure may show the parent alone.

Experiments:
MDA-MB-231 cells = assay: Apoptosis assay (Cell Death Detection ELISA), MDA-MB-231; type: cell-based, human; settings: 48 hours
Procedure: (§1) Apoptosis Assay—Apoptosis was analyzed using the Cell Death Detection ELISA (Roche, Indianapolis, Ind.) measuring cytoplasmic histone-associated mono- and oligonucleosome DNA fragments. Procedures were carried out according to the manufacturers protocol. Briefly, 1×10^5 cells were plated in 60 mm dishes and treated with various doses of ARA-211 or vehicle for 48 hours. Cells were lysed with the provided lysis buffer and lysate was incubated on the ELISA plate for 1 hour to capture the histone associated DNA indicative of apoptotic cells. Anti-DNA peroxidase conjugated antibody was added to detect the cleaved DNA and the microplate was washed and developed with ABTS substrate which was quantitated by microplate reader at 405 nm.

P-Erk 1/2 [1] = assay: P-Erk 1/2 levels (Western blotting), A-549; type: cell-based, human
Procedure: (§2) Western Blotting—Treated cell samples were lysed in 30 mM HEPES, 10 mM NaCl, 5 mM MgCl2, 25 mM NaF, 1 mM EGTA, 1% Triton-X-100, 10% Glycerol, 2 mM Sodium orthovanidate, 10 μg/mL aprotinin, 10 μg/mL soybean trypsin inhibitor, 25 μg/mL leupeptin, 2 mM phenylmethylsulfonylfluoride (PMSF), 6.4 mg/mL p-nitrophenylphosphate for 30 minutes at 4° C., and proteins run on SDS-PAGE gels then transferred to nitrocellulose membranes. Membranes were blocked in either 5% milk in PBS, pH 7.4, containing 0.1% Tween-20 (PBS-T) or 1% BSA in TBS, pH 7.5, containing 0.1% Tween-20 (TBS-T). Phospho-STAT3 and phospho-AKT antibodies were diluted in 1% BSA in TBS-T while phospho-c-Raf, phospho-Mek, and phospho-p44/p42 MAPK antibodies (Cell Signaling) were diluted in 5% milk in PBS-T for either 1 hour at room temperature or overnight at 4° C. HRP-conjugated secondary antibodies (Jackson ImmunoResearch, West Grove, Pa.) were diluted in 5% milk in PBS-T or TBS-T at a 1:1000 dilution for one hour at room temperature. Western blots results were visualized using enhanced chemiluminescence. Stripping of the membranes for reblotting was done using stripping buffer (62.5 mM Tris pH 7.6, 2% SDS, 0.7% 2-mercaptoethanol) at 50° C. for 30 minutes.

protein kinase A (PKA) = assay: PKA kinase assay, MDA-MB-231 cells; type: cell-based, human
Procedure: PKA Kinase Assay—PKA kinase assays were performed with the SignaTECT® cAMP-Dependent Protein Kinase (PKA) Assay System (Promega, Madison Wis.) according to the manufacturer's protocol. Briefly, cells were plated (5×10^6) into 100 mm dishes and treated the next day with ARA-211, H-89 (EMD Biosciences), or vehicle. Cells were lysed using a Dounce homogenizer and lysates were incubated in the supplied kinase reaction buffer, with ^32P-ATP and biotin labeled PKA peptide substrate for 5 min at 37° C. Once the reactions were quenched they were spotted onto streptavidin membranes and ^32P-ATP transfer was measured via scintillation counter.

P-Mek-1 = P-Mek-1 levels (Western blotting), MDA-MB-231; type: cell-based, human
Procedure: as §2

HCT-116 cells = assay: Total cellular cAMP measurement, HCT-116; type: cell-based, human
Procedure: Total cellular cAMP measurement—The measurement of total cellular cAMP was done using a cAMP Biotrak ™ Enzymeimmunoassay (EIA) system (Amersham Biosciences, Piscataway, N.J.) according to the manufacturer's protocol. Briefly, 2000 cells were plated into each well of a 96 well plate. The next day cells were treated with increasing concentrations of ARA-211 or with vehicle for one hour. Alternatively, MDA-MB-231 cells were pre-treated with antagonists to the α1 (Prazosin, Sigma), α2 (Yohimbine, Sigma), β1 (Metoprolol, Sigma), and β2 (ICI 118.551, Sigma) adrenergic receptors at 100 nM for 15 minutes followed by treatment with 10 μM ARA-211 for 45 minutes. Cells were then lysed directly in the wells using the supplied lysis buffer. The lysate was transferred to a 96-well cAMP ELISA plate, and results were quantified using a Wallac Victor 2 plate reader.

A-549 cells [2] = assay: Anchorage-independent growth (soft agar assay), A-549; type: cell-based, human; settings: n = 6
Procedure: Soft Agar Assay—Anchorage independent growth assays were performed as previously described (Lerner et al., 1997). Briefly, agar was diluted to 0.3% in propagation media containing 20,000 cells and either vehicle or ARA-211 and 1 ml of cell/agar mixture plated on top of 2 ml of a 0.6% layer of agar in medium alone. Cells were grown for three to four weeks at 37° C., 10% Co2 and were fed weekly with 100 μl per well of media/treatment. Quantification of colonies was done using a GS-700 scanning densitometer.

SNB-19 cells = assay: Nude mouse xenograft model, SNB-19 (s.c.); type: in vivo, nude mice; settings: SNB-19 xenograft; i.p. 75 mpk/day
Source text: Anti-tumor activity in nude mouse xenograft model—Female athymic nude (nu/nu) mice, 5-6 weeks old, were purchased from Charles River (Wilmington, Mass.) and allowed to acclimate in the animal facility for one week. After harvesting, A-549, SNB-19, ACHN, and HCT-116 cells were, resuspended in sterile PBS, and injected s.c. into the right and left flanks (10×10^6 cells per flank) of the mice as previously described (Sun et al., 2005). For MDA-MB-231, cells were harvested and resuspended in PBS (10×10^6 cells per 50 μl) and an equal volume of Matrigel (BD Biosciences, San Jose, Calif.). 100 μl of MDA-MB-231 cells in PBS/Matrigel were injected s.c. into the mammary fat pads between the 2nd and 3rd nipples on each side of the mice. Once the tumors reached approximately 200-300 mm^3 the mice were randomized and treated i.p. with 0.1 ml vehicle (PBS) or ARA-211. Each treatment group consisted of five mice (2 tumors per mouse, a total of 10 tumors). The tumor volumes were determined by measuring the length (l) and width (w) and calculating the volume (V=w^2l/2). Statistical significance between the control and treated animals was determined using a student's t test.

P-Erk 1/2 [3] = assay: Growth factor (EGF) stimulation of P-Erk 1/2, MDA-MB-231 cells; type: cell-based, human
A-549 cells [4] = assay: Apoptosis assay (Cell Death Detection ELISA), A-549; type: cell-based, human; settings: 48 hours, two single values, dihydrochloride
Procedure: as §1

P-Erk 1/2 [5] = assay: P-Erk 1/2 levels (Western blotting), ACHN; type: cell-based, human
Procedure: as §2

With `CC(C)(C)NCC(O)c1ccc(O)c(CO)n1` (stereo not shown) [ARA-211, 2-hydroxymethyl-3-hydroxy-6-(1-hydroxy-2-tert-butylaminoethyl) pyridine, dihydrochloride] the “Apoptosis (% Induction)” value (MDA-MB-231 cells) was 15 ± 4%, the “P-Erk ½ (% Inhibition)” value (P-Erk 1/2 [1]) was 0% and the “activation of protein kinase A (PKA)” value (protein kinase A (PKA)) was “activation of protein kinase A (PKA)”. The P-Mek-1 levels (P-Mek-1) was “suppressed”, the “cAMP (Fold Induction)” value (HCT-116 cells) was 1.1 ± 0.1 Fold and the “Anchorage Independent Growth (% Inhibition)” value (A-549 cells [2]) was 0 (n = 6) %. For the same compound, the growth of tumors (SNB-19 cells) was “is not affected”, the “growth factor (EGF) stimulation of P-Erk 1/2” value (P-Erk 1/2 [3]) was “is blocked” and the “Apoptosis (% Induction)” value (A-549 cells [4]) was 3.1% and 2.2%. For the same compound, the “P-Erk ½ (% Inhibition)” value (P-Erk 1/2 [5]) was 91%.
